According to patent publication US20260373134A1, “INHIBITORS OF DYRK1A” (Beth Israel Deaconess Medical Center, Inc., priority 2023, published 2026):
Read-outs that look alike come from different tables or passages of the source.

Tests used:
[1] = molecular target: T1, Tau phosphorylation (human DYRK1A and Tau) in HEK293 cells (Homo sapiens, UniProt Q13627); experiment: Kinase cellular assay: p-Tau levels in HEK293 cells expressing full-length human DYRK1A and Tau; format: cell-based; details: Table 1a
T1 construct: p-Tau ELISA
Method: (§1) Methods: a competitive binding assay was used as the primary screen to measure the binding affinity (KD) to DYRK1A. Selectivity against DYRK1B/2 as well as the related CLK1-4 was determined by comparison of the KD in each of the enzymes. Cellular activity of representative compounds was obtained by measuring the p-Tau levels in HEK293 cells expressing human full-length DYRK1A and Tau.
Kinase Cellular Assay: HEK293 human embryonic kidney cells were transiently co-transfected with vectors encoding full-length human DYRK1A and Tau. Cells were dispensed into 96-well plates at a number previously determined by cell titration and signal optimization for the DYRK1A assay. Compounds were diluted to 200× final assay concentration in DMSO. Eight 3-fold or 4-fold serial dilutions were prepared for each compound in 100% DMSO. Compounds were then diluted in tissue culture medium to 10× final assay concentration and 5% DMSO. Compounds were added to the cells in 96-well plates (10-fold dilution in medium) for a final concentration of 1× compound and 0.5% DMSO. For positive (high signal) controls, cells were treated with 0.5% DMSO alone. For negative (low signal) controls, cells were treated with 20 μM harmine including 0.5% DMSO final concentration. Cells were incubated with compound at 37 °C for 2 hours. Cells were lysed, and lysates were transferred to an ELISA plate that had been previously coated with antibody to capture the substrate (human Tau). Plates were washed then incubated with an antibody to detect phosphorylation of Tau. Plates were washed then incubated with HRP-linked secondary antibody. Plates were washed, then HRP substrate was added. Absorbance was read at 450 nm. Percent inhibition values were calculated from absorbance readings based on positive and negative control values, and according to the following formula: (% INH=((positive control−sample)/(positive control−negative control))[…]. Z′ values were calculated based on the following formula: 1−[(3×standard deviation of positives+3×standard deviation of negatives)/(average positive−average negative)]. Percent inhibition values were plotted vs. the log of compound concentrations utilizing GraphPad Prism software. IC50s were determined after utilizing sigmoidal dose response curve fitting to generate the curves.

[2] = molecular target: T2, DYRK1A (Homo sapiens, UniProt Q13627); experiment: Kinase assay, % inhibition at fixed concentrations (Table 1b); format: binding; details: for inhibition at 10 µM: read-out: % inh at 10 μM
T2 construct: T7 phage (kinase-tagged T7 phage), or a DNA tag for qPCR if produced in HEK-293; made in house; host or cells: E. coli (BL21-derived, T7 phage) for most kinases, HEK-293 for the remaining ones
Method: as §1
(§2) Kinase assays. For most assays, kinase-tagged T7 phage strains were prepared in an E. coli host derived from the BL21 strain. E. coli were grown to log-phase and infected with T7 phage and incubated with shaking at 32 °C until lysis. The lysates were centrifuged and filtered to remove cell debris. The remaining kinases were produced in HEK-293 cells and subsequently tagged with DNA for qPCR detection. Streptavidin-coated magnetic beads were treated with biotinylated small molecule ligands for 30 minutes at room temperature to generate affinity resins for kinase assays. The liganded beads were blocked with excess biotin and washed with blocking buffer (SeaBlock (Pierce), 1% BSA, 0.05% Tween 20, 1 mM DTT) to remove unbound ligand and to reduce non-specific binding. […] Test compounds were prepared as 111× stocks in 100% DMSO. Kas were determined using an 11-point 3-fold compound dilution series with three DMSO control points. All compounds for Kd measurements are distributed by acoustic transfer (non-contact dispensing) in 100% DMSO. The compounds were then diluted directly into the assays such that the final concentration of DMSO was 0.9%. All reactions performed in polypropylene 384-well plate. Each was a final volume of 0.02 mL. The assay plates were incubated at room temperature with shaking for 1 hour and the affinity beads were washed with wash buffer (1×PBS, 0.05% Tween 20). The beads were then re-suspended in elution buffer (1×PBS, 0.05% Tween 20, 0.5 μM non-biotinylated affinity ligand) and incubated at room temperature with shaking for 30 minutes. The kinase concentration in the eluates was measured by qPCR.

[3] = molecular target: T2, DYRK1A; experiment: Competitive binding assay, KD to DYRK1A
Method: as §1, §2

[4] = test system: IL-2; experiment: T-cell inflammation inhibition assay (anti-CD3 stimulated PBMCs), IL-2; format: cell-based; details: Homo sapiens, PBMC, read-out: % inh at 5 μM IL2
Method: (§3) T-cell Inflammation Inhibition Assay Protocol: Day 1, High binding plates were coated with anti-CD3 (clone UCHT-1, 2 μg/mL) and isotype IgG1 using PBS 1× and incubated overnight at 4 °C. Day 2: Cryopreserved PBMCs were drip thawed and diluted to the appropriate density and seeded into U bottom 96-well polypropylene plates (1.2×10^5 cells per well) with 228 μL per well of culture medium (RPMI 1640, 10% heat-inactivated FBS, 1% penicillin/streptomycin, 2 mM L-glutamine). Cells were incubated at 37 °C, 5% CO2 for 1 hour prior to the addition of test compounds. Test compounds were solubilized in DMSO and further diluted to 20× with cell culture medium. Compounds were added to the PBMCs in volumes of 12 μL (1×) in triplicate and incubated for 1 hour at 37 °C, 5% CO2. For reference compound, 12 μL of dexamethasone (100 nM) was added to the control wells according to the plate map and incubated for 1 hour at 37 °C, 5% CO2. After 1 hour incubation, 200 μL of cells (1×10^5) treated with test compounds or controls were transferred to the anti-CD3 coated plates and incubated for 24 hours at 37 °C, 5% CO2, For positive and negative controls, transferred 200 μL (1×10^5) of cells to the coated plate with anti-CD3 or isotype IgG1. Plates were centrifuged at 200×g for 10 minutes. Cell culture supernatants were collected and stored at −80 °C until needed for analysis. Cytokine levels in each sample were determined using Luminex methodology, per the manufacturer's protocol, Luminex assessment of cytokine levels in cell culture supernatants in tissue culture medium, was performed per manufacturer's protocol using the Human Cytokine/Chemokine Magnetic bead panel from Millipore Sigma (catalogue No. HCYTOMAG-60K) with standards range 3.2, 16, 80, 400, 2,000, 10,000 pg/mL. Cytokines Measured: The following cytokines were measured for a complete cytokine response profile. Human panel, T cell (neat): IL-2, IL-17, […].

[5] = test system: IL-17; experiment: T-cell inflammation inhibition assay (anti-CD3 stimulated PBMCs), IL-17; format: cell-based; details: Homo sapiens, PBMC, read-out: % inh at 5 μM IL17
Method: as §3

[6] = test system: INFg; experiment: T-cell inflammation inhibition assay (anti-CD3 stimulated PBMCs), IFN gamma; format: cell-based; details: Homo sapiens, PBMC, read-out: % inh at 5 μM INFg
Method: as §3

IC50 [1] [nM]	inhibition at 10 µM [2] [%]	Kd ([3]; read-out: KD) [nM]	Kd ([3]; read-out: KD (bound)) [nM]	SMILES	inhibition at 5 µM [4] [%]	inhibition at 5 µM ([4]; second value) [%]	inhibition at 5 µM [5] [%]	inhibition at 5 µM ([5]; second value) [%]	inhibition at 5 µM [6] [%]	further results
37	100	0.17	< 1	CC1(COC(=O)Nc2nc3cc(-c4ccncc4)ccc3[nH]2)COC1 [Compound 1, (3-methyloxetan-3-yl)methyl (5-(pyridin-4-yl)-1H-benzo[d]imidazol-2-yl)carbamate]	–	–	–	–	–	inhibition at 1 µM [2]: 100%; inhibition at 0.1 µM ([2]; read-out: % inh at 0.1 μM): 100%
280	–	0.72	< 1	COC(=O)Nc1nc2cc(-c3ccnc(C)c3)ccc2[nH]1 [Compound 2, Methyl (5-(2-methylpyridin-4-yl)-1H-benzo[d]imidazol-2-yl)carbamate]	46.5	42.3	22.8	35.9	31.4	inhibition at 5 µM ([6]; second value): 11.5%
55	–	0.33	< 1	Cc1cc(-c2ccc3[nH]c(NC(=O)OCC4COC4)nc3c2)ccn1 [Compound 5, Oxetan-3-ylmethyl (5-(2-methylpyridin-4-yl)-1H-benzo[d]imidazol-2-yl)carbamate]	78.2	59.3	47.8	51.8	58.8	inhibition at 5 µM ([6]; second value): 46%
827	–	–	–	Cc1cc(-c2ccc3[nH]c(NC(=O)NCC4(C)COC4)nc3c2)ccn1 [Compound 6, 1-((3-Methyloxetan-3-yl)methyl)-3-(5-(2-methylpyridin-4-yl)-1H-benzo[d]imidazol-2-yl)urea]	38.9	35.8	9.3	7.3	30	–
–	–	–	–	O=C(Nc1nc2cc(-c3cccnc3)ccc2[nH]1)OCC1COC1 [Compound 7, Oxetan-3-ylmethyl (5-(pyridin-3-yl)-1H-benzo[d]imidazol-2-yl)carbamate]	36.9	43.4	–	–	24.4	–
26	–	–	–	O=C(Nc1nc2cc(-c3ccncc3)ccc2[nH]1)OCC1COC1 [Compound 10, Oxetan-3-ylmethyl (5-(pyridin-4-yl)-1H-benzo[d]imidazol-2-yl)carbamate]	76.1	59.8	35	30.4	57.5	inhibition at 5 µM ([6]; second value): 39.9%
–	–	0.33	< 1	CC1(CNC(=O)Nc2nc3cc(-c4ccncc4)ccc3[nH]2)COC1 [Compound 11, 1-((3-Methyloxetan-3-yl)methyl)-3-(5-(pyridin-4-yl)-1H-benzo[d]imidazol-2-yl)urea]	–	–	–	–	–	–
–	–	0.14	< 1	Cc1cc(-c2ccc3[nH]c(NC(=O)OCC4(C)COC4)nc3c2)ccn1 [Compound 12, (3-methyloxetan-3-yl)methyl (5-(2-methylpyridin-4-yl)-1H-benzo[d]imidazol-2-yl)carbamate]	–	–	–	–	–	–
–	11	–	–	COc1ccc2[nH]c(N)nc2c1 [Compound 18, 5-Methoxy-1H-benzo[d]imidazol-2-amine]	–	–	–	–	–	–
–	51	–	–	COc1ccc2[nH]c(NC(=O)OCCN(C)C)nc2c1 [Compound 19, 2-(Dimethylamino)ethyl (5-methoxy-1H-benzo[d]imidazol-2-yl)carbamate]	–	–	–	–	–	–
–	96.4	–	–	COc1ccc2[nH]c(NC(=O)OCC3(C)COC3)nc2c1 [Compound 20, (3-Methyloxetan-3-yl)methyl (5-methoxy-1H-benzo[d]imidazol-2-yl)carbamate]	–	–	–	–	–	inhibition at 1 µM [2]: 63%
–	69	–	–	COc1ccc2[nH]c(NC(=O)OCc3cccc(F)c3)nc2c1 [Compound 21, 3-Fluorobenzyl (5-methoxy-1H-benzo[d]imidazol-2-yl)carbamate]	–	–	–	–	–	–

SMILES	IC50 [1] [nM]	inhibition at 10 µM [2] [%]	Kd ([3]; read-out: KD) [nM]	Kd ([3]; read-out: KD (bound)) [nM]	inhibition at 5 µM [4] [%]	inhibition at 5 µM ([4]; second value) [%]	inhibition at 5 µM [5] [%]	inhibition at 5 µM ([5]; second value) [%]	inhibition at 5 µM [6] [%]	further results
COC(=O)Nc1nc2cc(OC)ccc2[nH]1 [Compound 17, Methyl (5-methoxy-1H-benzo[d]imidazol-2-yl)carbamate]	–	69	–	–	–	–	–	–	–	–
